From ChEMBL document CHEMBL1201862, “PubChem BioAssay data set” (2004)
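Following 48 hours of exposure in 96-well plates, responses at five concentrations were used to interpolate endpoints linearly. Abbreviation: GI50, concentration required for 50% inhibition of growth.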 Activity calls are given as the source filed them. Cut-off read from the data, not from the text of the source: active = GI50 up to about 1.1 µM and inactive = higher.

Tests used:
Test in all cases: NCI tumour cell line growth inhibition, 48 h
[1] = test system: 786-0
[2] = test system: A498
[3] = test system: A549
[4] = test system: ACHN
[5] = test system: CAKI-1
[6] = test system: CCRF-CEM
[7] = test system: COLO 205
[8] = test system: DLD-1
[9] = test system: DMS-114
[10] = test system: DMS-273
[11] = test system: EKVX
[12] = test system: HCC 2998
[13] = test system: HCT-116
[14] = test system: HCT-15
[15] = test system: HL-60
[16] = test system: HOP-18
[17] = test system: HOP-62
[18] = test system: HOP-92
[19] = test system: HT-29
[20] = test system: IGROV-1
[21] = test system: K562
[22] = test system: KM-20L2
[23] = test system: KM12
[24] = test system: LOX IMVI
[25] = test system: LXFL 529
[26] = test system: M14
[27] = test system: M19-MEL
[28] = test system: MOLT-4
[29] = test system: Malme-3M
[30] = test system: NCI-H226
[31] = test system: NCI-H23
[32] = test system: NCI-H460
[33] = test system: NCI-H522
[34] = test system: OVCAR-3
[35] = test system: OVCAR-4
[36] = test system: OVCAR-5
[37] = test system: RPMI-8226
[38] = test system: RXF 393
[39] = test system: RXF 631
[40] = test system: SF-268
[41] = test system: SF-295
[42] = test system: SF-539
[43] = test system: SK-MEL-28
[44] = test system: SK-MEL-2
[45] = test system: SK-MEL-5
[46] = test system: SK-OV-3
[47] = test system: SN12C
[48] = test system: SNB-19
[49] = test system: SNB-75
[50] = test system: SNB-78
[51] = test system: SR
[52] = test system: SW-620
[53] = test system: TK-10
[54] = test system: U-251
[55] = test system: UACC-257
[56] = test system: UACC-62
[57] = test system: UO-31
[58] = test system: OVCAR-8
[59] = test system: XF498

SMILES: COc1ccc(NC(=O)CC/C(CC(=O)C(C)(C)C)=N\NC(=O)C(=O)NN)cc1
- GI50 [1]: > 100 µM (inactive)
- GI50 [2]: > 100 µM (inactive)
- GI50 [3]: > 100 µM (inactive)
- GI50 [4]: > 100 µM (inactive)
- GI50 [5]: > 100 µM (inactive)
- GI50 [6]: > 100 µM (inactive)
- GI50 [7]: > 100 µM (inactive)
- GI50 [8]: > 100 µM (inactive)
- GI50 [9]: > 100 µM (inactive)
- GI50 [10]: > 100 µM (inactive)
- GI50 [11]: > 100 µM (inactive)
- GI50 [12]: > 100 µM (inactive)
- GI50 [13]: > 100 µM (inactive)
- GI50 [14]: > 100 µM
- GI50 [15]: > 100 µM (inactive)
- GI50 [16]: > 100 µM (inactive)
- GI50 [17]: > 100 µM (inactive)
- GI50 [18]: 56.5 µM (inactive)
- GI50 [19]: > 100 µM (inactive)
- GI50 [20]: > 100 µM (inactive)
- GI50 [21]: > 100 µM (inactive)
- GI50 [22]: > 100 µM (inactive)
- GI50 [23]: > 100 µM (inactive)
- GI50 [24]: > 100 µM (inactive)
- GI50 [25]: > 100 µM (inactive)
- GI50 [26]: > 100 µM (inactive)
- GI50 [27]: > 100 µM (inactive)
- GI50 [28]: > 100 µM (inactive)
- GI50 [29]: > 100 µM (inactive)
- GI50 [30]: > 100 µM (inactive)
- GI50 [31]: > 100 µM (inactive)
- GI50 [32]: > 100 µM (inactive)
- GI50 [33]: 44.2 µM (inactive)
- GI50 [34]: > 100 µM (inactive)
- GI50 [35]: > 100 µM (inactive)
- GI50 [36]: > 100 µM (inactive)
- GI50 [37]: > 100 µM (inactive)
- GI50 [38]: > 100 µM (inactive)
- GI50 [39]: > 100 µM (inactive)
- GI50 [40]: > 100 µM (inactive)
- GI50 [41]: > 100 µM (inactive)
- GI50 [42]: > 100 µM (inactive)
- GI50 [43]: > 100 µM (inactive)
- GI50 [44]: > 100 µM (inactive)
- GI50 [45]: > 100 µM (inactive)
- GI50 [46]: > 100 µM (inactive)
- GI50 [47]: > 100 µM (inactive)
- GI50 [48]: > 100 µM (inactive)
- GI50 [49]: > 100 µM (inactive)
- GI50 [50]: > 100 µM (inactive)
- GI50 [51]: > 100 µM (inactive)
- GI50 [52]: > 100 µM (inactive)
- GI50 [53]: > 100 µM (inactive)
- GI50 [54]: > 100 µM (inactive)
- GI50 [55]: > 100 µM (inactive)
- GI50 [56]: > 100 µM (inactive)
- GI50 [57]: > 100 µM (inactive)

SMILES: CCOC(=N)CC(=O)Nc1cccc(Cl)c1
- GI50 [1]: > 100 µM (inactive)
- GI50 [2]: > 100 µM (inactive)
- GI50 [3]: > 100 µM (inactive)
- GI50 [4]: > 100 µM (inactive)
- GI50 [5]: > 100 µM (inactive)
- GI50 [6]: > 100 µM (inactive)
- GI50 [7]: > 100 µM (inactive)
- GI50 [8]: > 100 µM (inactive)
- GI50 [10]: > 100 µM (inactive)
- GI50 [11]: > 100 µM (inactive)
- GI50 [12]: 67 µM (inactive)
- GI50 [13]: > 100 µM (inactive)
- GI50 [15]: > 100 µM (inactive)
- GI50 [17]: > 100 µM (inactive)
- GI50 [19]: > 100 µM (inactive)
- GI50 [20]: > 100 µM (inactive)
- GI50 [21]: > 100 µM (inactive)
- GI50 [22]: > 100 µM (inactive)
- GI50 [23]: > 100 µM (inactive)
- GI50 [24]: > 100 µM (inactive)
- GI50 [25]: > 100 µM (inactive)
- GI50 [26]: > 100 µM (inactive)
- GI50 [27]: > 100 µM (inactive)
- GI50 [28]: > 100 µM (inactive)
- GI50 [29]: 31.7 µM (inactive)
- GI50 [30]: > 100 µM (inactive)
- GI50 [31]: 4.9 µM (inactive)
- GI50 [32]: > 100 µM (inactive)
- GI50 [33]: > 100 µM (inactive)
- GI50 [34]: > 100 µM (inactive)
- GI50 [35]: > 100 µM (inactive)
- GI50 [36]: > 100 µM (inactive)
- GI50 [58]: > 100 µM (inactive)
- GI50 [38]: > 100 µM (inactive)
- GI50 [39]: > 100 µM (inactive)
- GI50 [40]: > 100 µM (inactive)
- GI50 [41]: > 100 µM (inactive)
- GI50 [42]: > 100 µM (inactive)
- GI50 [43]: > 100 µM (inactive)
- GI50 [44]: > 100 µM (inactive)
- GI50 [45]: > 100 µM (inactive)
- GI50 [46]: > 100 µM (inactive)
- GI50 [47]: 51.2 µM (inactive)
- GI50 [48]: > 100 µM (inactive)
- GI50 [49]: > 100 µM (inactive)
- GI50 [50]: 5.65 µM (inactive)
- GI50 [51]: > 100 µM (inactive)
- GI50 [52]: > 100 µM (inactive)
- GI50 [53]: > 100 µM (inactive)
- GI50 [54]: > 100 µM (inactive)
- GI50 [55]: > 100 µM (inactive)
- GI50 [56]: > 100 µM (inactive)
- GI50 [57]: > 100 µM (inactive)
- GI50 [59]: > 100 µM (inactive)

SMILES: [N-]=[N+]=C1C(=O)C2CC3CC1CC2C3 (centres undefined)
- GI50 [1]: > 100 µM (inactive)
- GI50 [2]: > 100 µM (inactive)
- GI50 [3]: > 100 µM (inactive)
- GI50 [4]: > 100 µM (inactive)
- GI50 [5]: > 100 µM (inactive)
- GI50 [6]: > 100 µM (inactive)
- GI50 [7]: > 100 µM (inactive)
- GI50 [8]: > 100 µM (inactive)
- GI50 [9]: > 100 µM (inactive)
- GI50 [10]: > 100 µM (inactive)
- GI50 [11]: > 100 µM (inactive)
- GI50 [12]: > 100 µM (inactive)
- GI50 [13]: > 100 µM (inactive)
- GI50 [14]: > 100 µM
- GI50 [15]: > 100 µM (inactive)
- GI50 [16]: > 100 µM (inactive)
- GI50 [17]: > 100 µM (inactive)
- GI50 [18]: > 100 µM (inactive)
- GI50 [19]: > 100 µM (inactive)
- GI50 [20]: > 100 µM (inactive)
- GI50 [21]: > 100 µM (inactive)
- GI50 [22]: > 100 µM (inactive)
- GI50 [23]: > 100 µM (inactive)
- GI50 [24]: > 100 µM (inactive)
- GI50 [25]: > 100 µM (inactive)
- GI50 [26]: > 100 µM (inactive)
- GI50 [27]: > 100 µM (inactive)
- GI50 [28]: > 100 µM (inactive)
- GI50 [29]: > 100 µM (inactive)
- GI50 [30]: > 100 µM (inactive)
- GI50 [31]: > 100 µM (inactive)
- GI50 [32]: > 100 µM (inactive)
- GI50 [33]: > 100 µM (inactive)
- GI50 [34]: > 100 µM (inactive)
- GI50 [35]: > 100 µM (inactive)
- GI50 [36]: > 100 µM (inactive)
- GI50 [58]: > 100 µM (inactive)
- GI50 [37]: > 100 µM (inactive)
- GI50 [38]: > 100 µM (inactive)
- GI50 [39]: > 100 µM (inactive)
- GI50 [40]: > 100 µM (inactive)
- GI50 [41]: > 100 µM (inactive)
- GI50 [42]: > 100 µM (inactive)
- GI50 [43]: > 100 µM (inactive)
- GI50 [44]: > 100 µM (inactive)
- GI50 [45]: > 100 µM (inactive)
- GI50 [46]: > 100 µM (inactive)
- GI50 [47]: > 100 µM (inactive)
- GI50 [48]: > 100 µM (inactive)
- GI50 [49]: > 100 µM (inactive)
- GI50 [50]: > 100 µM (inactive)
- GI50 [51]: > 100 µM (inactive)
- GI50 [52]: 81.1 µM (inactive)
- GI50 [53]: > 100 µM (inactive)
- GI50 [54]: > 100 µM (inactive)
- GI50 [55]: > 100 µM (inactive)
- GI50 [56]: > 100 µM (inactive)
- GI50 [57]: > 100 µM (inactive)
